Measured values from patent publication US20260152533A1, “COMBINATION INHIBITORS FOR TREATING FIBROSIS” (Memorial Sloan-Kettering Cancer Center, priority 2021, published 2026).

Key:
Assay type in all cases: cell-based, mouse
[1] = tested on: NIH-3T3 cells; test: Western blot of NIH-3T3 cells (collagen I, GCN2, ATF4, PC); conditions: for rescue of TGFβ-induced collagen I depletion: metabolite, 48 hours
Excerpt: (§1) PSCs were isolated from C57BL/6 mice by differential centrifugation as previously described^49 and their mesenchymal origin was validated by analyzing the expression of various mesenchymal and epithelial markers. MFBs were isolated from FVB/N mice by differential centrifugation as previously described^50. DB7 mouse breast cancer cells were obtained from Alexander Borowsky (University of California Davis Comprehensive Cancer Center, Sacramento, CA, USA) through an MTA to Ohio State University (OSU). KPC (Kras^LSL-G12D; Trp53^LSL-R172H; Pdx1-Cre) mouse PDAC cells were a gift from Scott Lowe (Memorial Sloan Kettering Cancer Center. (MSKCC)). All cells were cultured at 37° C. in 5% carbon dioxide (CO2) and 20% oxygen (O2) and were maintained in Dulbecco's Modified Eagles medium (DMEM) (25 mM D-glucose, 2 mM L-glutamine) supplemented with 10% fetal bovine serum (FBS) (Gemini), 100 units/ml penicillin and 100 μg/ml streptomycin. Primary PSC and MFB cells were kept in culture for no more than ten passages. Experiments with iCAFs and myCAFs were performed as previously described^29. In brief, qPSCs were generated by culturing PSCs in a dome of GFR Matrigel (Corning) in DMEM; iCAFs were generated by culturing PSCs in a dome of GFR Matrigel in DMEM conditioned by KPC cells for 48 h; myCAFs were generated by monolayer culture of PSCs. Differentiation was validated by analyzing the expression of iCAF/myCAF markers^29. For experiments with different glutamine concentrations, cells were seeded in regular DMEM and the medium was changed 5-6 hours later or the following day to glucose and glutamine-free DMEM supplemented with 10% dialyzed FBS (Gemini) and 20 mM D-glucose, 2 mM L-glutamine (100%), 0.4 mM L-glutamine (20%) or 0.2 mM L-glutamine (10%). All media were prepared by the Media Preparation Facility at MSKCC. Cells were verified as mycoplasma-free by the MycoAlert Mycoplasma Detection Kit (Lonza).
Lysates were generated by incubating cells or ground tumors in RIPA buffer (Millipore); […] of cleared lysate were analyzed by SDS-polyacrylamide gel electrophoresis (SDS-PAGE) as previously described^11. […] The following secondary antibodies were used: anti-rabbit horseradish peroxidase (HRP) (1:5,000; GE, NA934V), anti-mouse HRP (1:5,000; GE, NA931). Quantification of band intensities of collagen I relative to […] or vinculin in tumor allograft experiments was performed with Image Lab software v6.0 (Bio-Rad).

[2] = tested on: NIH-3T3 cells; test: Growth experiments, NIH-3T3 cells; conditions: 10% Gln, TGFβ, 0.2, 1 or 5 mM metabolite, 3 days
Excerpt: NIH-3T3 cells were obtained from ATCC (CRL-1658); 293 T cells were obtained from ATCC (CRL-3216). PSCs were isolated from C57BL/6 mice by differential centrifugation as previously described^49 and their mesenchymal origin was validated by analyzing the expression of various mesenchymal and epithelial markers. MFBs were isolated from FVB/N mice by differential centrifugation as previously described^50. DB7 mouse breast cancer cells were obtained from Alexander Borowsky (University of California Davis Comprehensive Cancer Center, Sacramento, CA, USA) through an MTA to Ohio State University (OSU). KPC (Kras^LSL-G12D; Trp53^LSL-R172H; Pdx1-Cre) mouse PDAC cells were a gift from Scott Lowe (Memorial Sloan Kettering Cancer Center. (MSKCC)). All cells were cultured at 37° C. in 5% carbon dioxide (CO2) and 20% oxygen (O2) and were maintained in Dulbecco's Modified Eagles medium (DMEM) (25 mM D-glucose, 2 mM L-glutamine) supplemented with 10% fetal bovine serum (FBS) (Gemini), 100 units/ml penicillin and 100 μg/ml streptomycin. Primary PSC and MFB cells were kept in culture for no more than ten passages. Experiments with iCAFs and myCAFs were performed as previously described^29. In brief, qPSCs were generated by culturing PSCs in a dome of GFR Matrigel (Corning) in DMEM; iCAFs were generated by culturing PSCs in a dome of GFR Matrigel in DMEM conditioned by KPC cells for 48 h; myCAFs were generated by monolayer culture of PSCs. Differentiation was validated by analyzing the expression of iCAF/myCAF markers^29. For experiments with different glutamine concentrations, cells were seeded in regular DMEM and the medium was changed 5-6 hours later or the following day to glucose and glutamine-free DMEM supplemented with 10% dialyzed FBS (Gemini) and 20 mM D-glucose, 2 mM L-glutamine (100%), 0.4 mM L-glutamine (20%) or 0.2 mM L-glutamine (10%). All media were prepared by the Media Preparation Facility at MSKCC. Cells were verified as mycoplasma-free by the MycoAlert Mycoplasma Detection Kit (Lonza).
A total of 0.2×10^5 cells/well were plated in 24-well culture plates and media was changed and treatments started 5-6 hours later. Cell numbers at the start of treatment (day 0 “d 0”) and 1, 2 and 3 days later were counted using the Multisizer 4e (Beckman) and normalized to the cell number at d 0. In co-culture assays, a fraction of the cell population was analyzed by flow cytometry for GFP expression, and the rest counted with the Multisizer 4e. The number of KPC-GFP cells was determined by multiplying the fraction of GFP+ cells with the total number of cells.

[3] = tested on: NIH-3T3 cells; test: Translation assay (OPP), NIH-3T3 cells; conditions: cells expressing human PC cDNA, 10% Gln, TGFβ, MSO 48 hours (FIG. 3K)
Description: Cells were treated as indicated and incubated with 20 μM O-propargyl-puromycin (OPP, Thermo Scientific) for the last 1 hour of the experiment. Cells were harvested by trypsinization and fixed with methanol at −20° C., followed by permeabilization with 0.5% Triton X-100 in phosphate-buffered saline (PBS).

[4] = tested on: pancreatic stellate cells (PSCs); test: Western blot of PSCs; conditions: TGFβ-treated PSCs, low glutamine, MSO (FIGS. 9A-9B)
Excerpt: as §1, with “For experiments with different glutamine concentrations, cells were seeded in regular DMEM and the medium was changed 5-6 hours later or the following day to glucose and glutamine-free DMEM supplemented with 10% dialyzed FBS (Gemini) and 20 mM D-glucose, 2 mM L-glutamine (100%), 0.4 mM L-glutamine (20%) or 0.2 mM L-glutamine (10%). All media were prepared by the Media Preparation Facility at MSKCC. Cells were verified as mycoplasma-free by the MycoAlert Mycoplasma Detection Kit (Lonza).” left out
Lysates were generated by incubating cells or ground tumors in RIPA buffer (Millipore); […] of cleared lysate were analyzed by SDS-polyacrylamide gel electrophoresis (SDS-PAGE) as previously described^11. […] Quantification of band intensities of collagen I relative to […] or vinculin in tumor allograft experiments was performed with Image Lab software v6.0 (Bio-Rad).

[5] = tested on: NIH-3T3 cells; test: tRNA charging assay, NIH-3T3 cells; conditions: 10% Gln, TGFβ 2 ng/mL, dm-αKG 5 mM with or without MSO 2 mM, 48 hours (FIG. 2A)
Description: Charging status of the indicated tRNA isodecoders was measured as previously described^20. In brief, Trizol-chloroform extracts were precipitated with 2.7× volumes of cold ethanol in the presence of 30 μg GlycoBlue (ThermoFisher) overnight. Samples were resuspended in 0.3 M acetate buffer (pH 4.5) with 10 mM ethylenediamine tetraacetic acid (EDTA) and precipitated overnight. Samples were resuspended in 10 mM acetate buffer with 1 mM EDTA. 2 μg of each RNA sample was treated with 10 mM of either sodium periodate (Sigma) (‘oxidized sample’) or sodium chloride (‘non-oxidized sample’) and incubated for 20 minutes at room temperature in the dark. Reactions were quenched with glucose for 15 minutes. Yeast Phe-tRNA (Sigma) was spiked into each sample, followed by ethanol precipitation. Samples were resuspended in 50 mM Tris buffer (pH 9) and incubated for 50 minutes at 37° C., quenched with acetate buffer and precipitated. […] Reverse transcription was performed with SuperScript IV reverse transcriptase (Thermo Scientific) according to the manufacturer's instructions, with a primer complementary to the DNA adaptor. cDNA samples were subjected to qPCR with tRNA isodecoder-specific primer pairs listed in Supplementary Table 1. Ct values obtained with primers specific for yeast Phe-tRNA were subtracted from Ct values obtained with isodecoder-specific primers. The charged fraction was calculated based on the relative difference between the delta-Ct value of a non-oxidized (representing total) and oxidized (representing charged) sample for each primer pair.

[6] = tested on: NIH-3T3 cells; test: Collagen abundance in ECM derived from confluent NIH-3T3 cells; conditions: low glutamine and low glucose medium (FIGS. 12E and 12F)
Description: Culture plates were coated with 0.1% gelatin (Sigma) and treated with 1% glutaraldehyde (Sigma) and 1 M ethanolamine (Sigma). Confluent NIH-3T3 cells, MFBs or PSCs were grown for 6 days on coated plates in the presence of […] sodium ascorbate (Sigma) and treated as indicated, and the medium was replaced every other day. Plates were decellularized with 20 mM ammonium hydroxide/0.5% Triton-X 100 for 5 min on a rotating platform. Three times the volume of PBS was added, and ECM was equilibrated overnight at 4° C., followed by four additional PBS washes. For western blot, preheated sample buffer supplemented with 1 mM dithiothreitol (DTT) was added, ECM was scraped off and boiled, and proteins were separated by SDS-PAGE followed by immunoblotting. To measure collagen abundance, fibroblast-derived ECM was stained with the Picro Sirius Red Stain Kit (Abcam) according to the manufacturer's instructions. The stain was extracted with 0.1 M sodium hydroxide (NaOH) and optical density was measured at 550 nm using a microplate reader. Differences in cell number were controlled for by growing cells on separate plates under the same experimental conditions.

[7] = concentrations relevant in vivo (10 mM lactate, 0.1 mM pyruvate), low glutamine and low glucose (FIG. 6E)

## NC(=O)C[C@H](N)C(=O)O [Asparagine, asparagine]
[1]; 10% Gln
  rescue of TGFβ-induced collagen I depletion: did not rescue
[2]
  rescue of TGFβ-induced growth defect: did not rescue

## CS(=N)(=O)CC[C@H](N)C(=O)O (stereo partly drawn) [MSO, methionine sulfoximine]
[3]
  increase of protein translation by PC overexpression: blocked
[4]
  restoration of collagen levels by dm-Glu and dm-αKG: prevented
[1]; PC-deleted cells, 10% Gln, dm-αKG plus MSO, 48 hours (FIG. 4I)
  restoration of collagen I levels by dm-αKG: unable to restore
[1]; TGFβ-treated NIH-3T3 cells, low glutamine, MSO (FIGS. 2C-2E)
  restoration of collagen levels by dm-Glu and dm-αKG: prevented
[1]; low Gln (10%), no TGFβ, MSO 48 hours (FIG. 2J)
  collagen I synthesis: unable to maintain
[5]
  charging of glutamine-tRNA: blocked

## CC(=O)C(=O)[O-].[Na+] [Pyruvate, sodium pyruvate]
[1]; [7]
  collagen 1 levels: only lactate supplementation increased
[1]; low glutamine and low glucose (FIG. 6E)
  potency to increase collagen 1 levels, relative: more potent than lactate

## CC(O)C(=O)[O-].[Na+] (stereo not drawn) [lactate, sodium lactate]
[1]; Ctrl or PC sgRNA cells, low glutamine and low glucose (FIG. 6H)
  ability of extracellular lactate to rescue collagen I: PC-dependent
[1]; [7]
  collagen 1 levels: increased
[1]; low glutamine (10%) and low glucose (1 mM), 48 hours (FIG. 6E)
  collagen 1 levels: increased
[6]
  collagen levels in the ECM produced by confluent fibroblasts: increased

## COC(=O)[C@@H]1CCCN1 [m-Pro, L-proline-methylester, reference compound]
[1]; 10% Gln
  rescue of TGFβ-induced collagen I depletion: not
[2]
  rescue of TGFβ-induced growth defect: not

## O=C(O)[C@@H]1CCCN1 [proline]
[1]; 10% Gln
  rescue of TGFβ-induced collagen I depletion: did not rescue
[2]
  rescue of TGFβ-induced growth defect: did not rescue
